Measured values reported in patent publication US7381722B2, “Tetracyclic amino and carboxamido compounds and methods of use thereof” (Inotek Pharmaceuticals Corporation, priority 2005, dated 2008).

Biological target: T1, PARS (Mus musculus, UniProt P11103)
T1 construct: endogenous in cells; host or cells: Raw murine macrophages
Assay: Cell protection assay: PARS activity in peroxynitrite-treated Raw murine macrophages
Assay type: cell-based
Conditions: compound 15 min before peroxynitrite (750 μM) for 15 min, PARS activity by 3H-NAD incorporation, EC50 from dose-response curve
Description: Raw murine macrophages were treated with an illustrative Tetracyclic Amino Compound or Tetracyclic Carboxamido Compound for 15 minutes prior to the addition of peroxynitrite (750 μM) for a further 15 minutes. For the measurement of PARS activity, the media were removed and replaced with 0.5 ml HEPES (pH 7.5) containing 0.01% digitonin and ^3H-NAD (0.5 μCi ml^−1, final concentration of NAD^+ in buffer is 20 nM/L) for 20 minutes. The cells were then scraped from the wells and placed in Eppendorf tubes containing 200 μl of 50% (w/v) ice-cold trichloroacetic acid (TCA). The tubes were then placed at 4° C. After 4 hr the tubes were centrifuged at 1800 g for 10 minutes and the supernatant removed. The pellets were washed twice with 500 μl ice-cold 5% TCA. The pellets were solubilized in 250 μl NaOH (0.1 M) containing 2% SDS overnight at 37° C. and the PARS activity was then determined by measuring the radioactivity incorporated using a Wallac scintillation counter. The solubilized protein (250 μl) was mixed with 5 ml of scintillant (ScintiSafe Plus, Fisher Scientific) before being counted for 10 minutes. The EC50 value was calculated from a dose-response curve.

T1 sequence (P11103 whole entry): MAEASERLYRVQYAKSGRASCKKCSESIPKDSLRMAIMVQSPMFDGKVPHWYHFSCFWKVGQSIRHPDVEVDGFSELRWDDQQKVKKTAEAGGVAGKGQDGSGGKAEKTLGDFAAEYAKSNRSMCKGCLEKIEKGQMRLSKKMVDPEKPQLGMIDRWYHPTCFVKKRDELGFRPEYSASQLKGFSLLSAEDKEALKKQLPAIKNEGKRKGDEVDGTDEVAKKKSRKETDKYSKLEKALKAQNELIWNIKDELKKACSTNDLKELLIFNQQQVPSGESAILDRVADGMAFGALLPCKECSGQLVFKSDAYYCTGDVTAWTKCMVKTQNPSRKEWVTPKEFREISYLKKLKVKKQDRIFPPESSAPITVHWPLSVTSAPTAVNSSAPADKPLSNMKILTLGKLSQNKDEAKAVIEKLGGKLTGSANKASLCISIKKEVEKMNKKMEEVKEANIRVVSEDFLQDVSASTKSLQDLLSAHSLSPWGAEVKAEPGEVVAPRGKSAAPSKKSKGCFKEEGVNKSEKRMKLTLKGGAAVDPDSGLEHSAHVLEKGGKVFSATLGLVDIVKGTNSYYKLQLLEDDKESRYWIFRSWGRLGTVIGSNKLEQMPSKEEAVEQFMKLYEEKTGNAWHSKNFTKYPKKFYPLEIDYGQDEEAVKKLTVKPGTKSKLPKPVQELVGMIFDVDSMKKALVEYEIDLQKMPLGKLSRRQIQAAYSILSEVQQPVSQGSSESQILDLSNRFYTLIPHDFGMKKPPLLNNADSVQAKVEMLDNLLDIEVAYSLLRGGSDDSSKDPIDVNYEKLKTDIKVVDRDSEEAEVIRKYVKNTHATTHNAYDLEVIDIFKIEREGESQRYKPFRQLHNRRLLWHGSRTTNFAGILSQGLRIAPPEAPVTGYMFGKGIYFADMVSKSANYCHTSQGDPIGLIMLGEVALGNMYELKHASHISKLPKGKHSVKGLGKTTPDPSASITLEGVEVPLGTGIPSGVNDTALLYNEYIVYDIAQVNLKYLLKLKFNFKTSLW

| EC50 [nM] | Structure (SMILES) |
| --- | --- |
| 900 | CN(C)CCCNC(=O)c1ccc2c(c1)Cc1c-2[nH]c(=O)c2ccccc12 [Compound 13b] |
| 1100 | O=C(NCCN1CCOCC1)c1ccc2c(c1)Cc1c-2[nH]c(=O)c2ccccc12 [Compound 14a] |
| 1100 | O=C(NCCCN1CCOCC1)c1ccc2c(c1)Cc1c-2[nH]c(=O)c2ccccc12 [Compound 14b] |
| > 1500 | CN(C)CCNC(=O)c1cccc2c1Cc1c-2[nH]c(=O)c2ccccc12 [Compound 15a] |
| > 1500 | CN(C)CCCNC(=O)c1cccc2c1Cc1c-2[nH]c(=O)c2ccccc12 [Compound 15b] |
| > 1500 | O=C(NCCN1CCOCC1)c1cccc2c1Cc1c-2[nH]c(=O)c2ccccc12 [Compound 16a] |
| > 1500 | O=C(NCCCN1CCOCC1)c1cccc2c1Cc1c-2[nH]c(=O)c2ccccc12 [Compound 16b] |
